Experimental data: patent US20160176867A1, “MODIFIED BET-PROTEIN-INHIBITING DIHYDROQUINOXALINONES AND DIHYDROPYRIDOPYRAZINONES” (BAYER PHARMA AKTIENGESELLSCHAFT, priority 2013, published 2016)

Molecular target: T1, BRD4 bromo domain 1 [BRD4(1)] (Homo sapiens, UniProt O60885)
T1 construct: N-terminally His6-tagged BRD4(1) (amino acids 67-152); made in house; host or cells: E. coli
Experiment: BRD4/acetylated peptide H4 binding assay (TR-FRET), BRD4 bromo domain 1
Conditions: inhibition of BRD4(1)/Ac-H4 peptide interaction
Method in brief: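 TR-FRET (665/620 nm ratio) measuring displacement of biotinylated tetra-acetylated H4 peptide from His6-BRD4(1) (aa 67-152, E. coli; typically 10 nM) at pH 7.5. Compound (11 concentrations, 0.1 nM–20 μM, duplicates) was preincubated 10 min at 22°C, then 1 h at 22°C and ≥3 h at 4°C; IC50 from 4-parameter fit normalized to DMSO and no-BRD4 controls.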

Row | IC50 [nM] | Structure (SMILES)
1 | 322 | C[C@@H]1C(=O)N(C)c2ccc(Nc3cccc(C(=O)NC4CCN(C)CC4)c3)nc2N1C1CCOCC1 [Example 13, 3-{[(3R)-1,3-Dimethyl-2-oxo-4-(tetrahydro-2H-pyran-4-yl)-1,2,3,4-tetrahydropyrido[2,3-b]pyrazin-6-yl]amino}-N-(1-methylpiperidin-4-yl)benzamide]
2 | 17 | C[C@@H]1C(=O)N(C)c2ccc(Nc3cccc(S(=O)(=O)NC4CC4)c3)nc2N1C1CCOCC1 [Example 26, N-Cyclopropyl-3-{[(3R)-1,3-dimethyl-2-oxo-4-(tetrahydro-2H-pyran-4-yl)-1,2,3,4-tetrahydropyrido[2,3-b]pyrazin-6-yl]amino}benzenesulphonamide]
3 | 21 | C[C@@H]1C(=O)N(C)c2ccc(Nc3cccc(S(=O)(=O)N4CCOCC4)c3)nc2N1C1CCN(C)CC1 [Example 47, (3R)-1,3-dimethyl-4-(1-methylpiperidin-4-yl)-6-{[3-(morpholin-4-ylsulphonyl)phenyl]-amino}-3-4-dihydropyrido-[2,3-b]pyrazin-2(1H)-one]
4 | 112 | C[C@@H]1C(=O)N(C)c2ccc(Nc3ccc4c(c3)S(=O)(=O)NC4)nc2N1C1CCOCC1 [Example 56, (3R)-6-[(1,1-dioxido-2,3-dihydro-1,2-benzothiazol-6-yl)amino]-1,3-dimethyl-4-(tetrahydro-2H-pyran-4-yl)-3,4-dihydropyrido[2,3-b]pyrazin-2(1H)-one]
5 | 108 | C[C@@H]1C(=O)N(C)c2ccc(Nc3cccc(C(=O)N4CCN(C)CC4)c3)nc2N1C1CCOCC1 [Example 15, (3R)-1,3-Dimethyl-6-({3-[(4-methylpiperazin-1-yl)carbonyl]phenyl}amino)-4-(tetrahydro-2H-pyran-4-yl)-3,4-dihydropyrido[2,3-b]pyrazin-2(1H)-one]
6 | 106 | C[C@@H]1C(=O)N(C)c2ccc(N(C)c3cccc(S(=O)(=O)N(C)C)c3)nc2N1C1CCOCC1 [Example 54, 3-{[(3R)-1,3-dimethyl-2-oxo-4-(tetrahydro-2H-pyran-4-yl)-1,2,3,4-tetrahydropyrido[2,3-b]pyrazin-6-yl](methyl)-amino}-N,N-dimethyl-benzenesulphonamide]
7 | 48 | C[C@@H]1C(=O)N(C)c2ccc(Nc3cccc(S(=O)(=O)NCCN(C)C)c3)nc2N1C1CCOCC1 [Example 21]
8 | 28 | C[C@@H]1C(=O)N(C)c2ccc(Nc3cccc(S(=O)(=O)N4CCOCC4)c3)nc2N1C1CCOCC1 [Example 9, (3R)-1,3-Dimethyl-6-{[3-(morpholin-4-ylsulphonyl)phenyl]amino}-4-(tetrahydro-2H-pyran-4-yl)-3,4-dihydropyrido[2,3-b]pyrazin-2(1H)-one]
9 | 50 | C[C@@H]1C(=O)N(C)c2ccc(Nc3cccc(S(=O)(=O)NCC4CCN(C)CC4)c3)nc2N1C1CCOCC1 [Example 44, 3-{[(3R)-1,3-dimethyl-2-oxo-4-(tetrahydro-2H-pyran-4-yl)-1,2,3,4-tetrahydropyrido[2,3-b]pyrazin-6-yl]amino}-N-[(1-methylpiperidin-4-yl)methyl]benzene-sulphonamide]
10 | 38 | CNS(=O)(=O)c1cccc(Nc2ccc3c(n2)N(C2CCOCC2)[C@H](C)C(=O)N3C)c1 [Example 39, 3-{[(3R)-1,3-dimethyl-2-oxo-4-(tetrahydro-2H-pyran-4-yl)-1,2,3,4-tetrahydropyrido[2,3-b]pyrazin-6-yl]amino}-N-methylbenzenesulphon-amide]
11 | 139 | C[C@@H]1C(=O)N(C)c2ccc(Nc3cccc(S(N)(=O)=O)c3)nc2N1C1CCOCC1 [Example 58, 3-{[(3R)-1,3-dimethyl-2-oxo-4-(tetrahydro-2H-pyran-4-yl)-1,2,3,4-tetrahydropyrido[2,3-b]pyrazin-6-yl]amino}-benzenesulphonamide]

Further lines, the molecule ahead of its results:

Row | Structure (SMILES) | IC50 [nM]
12 | C[C@@H]1C(=O)N(C)c2ccc(Nc3cccc(S(=O)(=O)N(C)C)c3)cc2N1C1CCNCC1 [Example 129, 3-{[(3R)-1,3-dimethyl-2-oxo-4-(piperidin-4-yl)-1,2,3,4-tetrahydroquinoxalin-6-yl]amino}-N,N-dimethylbenzenesulphon-amide] | 45
13 | CC(C)N1c2nc(Nc3cccc(S(=O)(=O)N[C@H]4CC[C@H](N5CCN(CC6CC6)CC5)CC4)c3)ccc2N(C)C(=O)[C@H]1C [Example 34, N-{trans-4-[4-(cyclopropylmethyl)piperazin-1-yl]cyclohexyl}-3-{[(3R)-4-isopropyl-1,3-dimethyl-2-oxo-1,2,3,4-tetrahydropyrido[2,3-b]pyrazin-6-yl]amino}-benzenesulphonamide] | 23
14 | CC(C)N1c2nc(Nc3cccc(C(=O)N[C@H]4CC[C@H](N5CCN(CC6CC6)CC5)CC4)c3)ccc2N(C)C(=O)[C@H]1C [Example 79, N-{trans-4-[4-(cyclo-propylmethyl)piperazin-1-yl]cyclohexyl}-3-{[(3R)-4-isopropyl-1,3-dimethyl-2-oxo-1,2,3,4-tetrahydropyrido[2,3-b]pyrazin-6-yl]amino}benzamide] | 193
15 | COCCN1c2nc(Nc3cccc(S(=O)(=O)N4CCN(C)CC4)c3)ccc2N(C)C(=O)C1C (racemic) [Example 53, 4-(2-methoxyethyl)-1,3-dimethyl-6-({3-[(4-methylpiperazin-1-yl)sulphonyl]phenyl}-amino)-3,4-dihydropyrido-[2,3-b]pyrazin-2(1H)-one] | 151
16 | C[C@@H]1C(=O)N(C)c2ccc(Nc3cccc(S(=O)(=O)N4CC(F)(F)C4)c3)nc2N1C1CCN(C)CC1 [Example 29, (3R)-6-({3-[(3,3-Difluoroazetidin-1-yl)sulphonyl]phenyl}amino)-1,3-dimethyl-4-(1-methylpiperidin-4-yl)-3,4-dihydropyrido[2,3-b]pyrazin-2(1H)-one] | 29
17 | COCCN1c2nc(Nc3cccc(S(=O)(=O)N4CCOCC4)c3)ccc2N(C)C(=O)[C@H]1C (stereo in doubt) [Example 111, (3R)-4-(2-methoxyethyl)-1,3-dimethyl-6-{[3-(morpholin-4-ylsulphonyl)phenyl]amino}-3,4-dihydropyrido[2,3-b]pyrazin-2(1H)-one] | 75
18 | C[C@@H]1C(=O)N(C)c2ccc(Nc3cccc(C(=O)N4CCN(C)CC4)c3)nc2N1Cc1ccccc1 [Example 75] | 118
19 | C[C@@H]1C(=O)N(C)c2ccc(Nc3cccc(S(=O)(=O)N4CCN(C)CC4)c3)nc2N1C1CCN(C)CC1 [Example 50, (3R)-1,3-dimethyl-6-({3-[(4-methylpiperazin-1-yl)sulphonyl]phenyl}-amino)-4-(1-methyl-piperidin-4-yl)-3,4-dihydropyrido[2,3-b]pyrazin-2(1H)-one] | 76
20 | C[C@@H]1C(=O)N(C)c2ccc(Nc3cccc(S(=O)(=O)NCCN(C)C)c3)nc2N1C1CCN(C(=O)OC(C)(C)C)CC1 [Example 59, tert-butyl 4-[(3R)-6-[(3-{[2-(dimethylamino)ethyl]-sulphamoyl}phenyl)amino]-1,3-dimethyl-2-oxo-2,3-dihydropyrido[2,3-b]pyrazin-4(1H)-yl]piperidine-1-carboxylate] | 156
21 | C[C@@H]1C(=O)N(C)c2ccc(Nc3cccc(S(=O)(=O)NC4CCN(C)CC4)c3)nc2N1C1CCN(C(=O)OC(C)(C)C)CC1 [Example 57, tert-butyl 4-[(3R)-1,3-dimethyl-6-({3-[(1-methylpiperidin-4-yl)sulphamoyl]phenyl}-amino)-2-oxo-2,3-dihydro-pyrido[2,3-b]pyrazin-4(1H)-yl]piperidine-1-carboxylate] | 114
22 | COc1ccc(S(=O)(=O)N2CC3(COC3)C2)cc1Nc1ccc2c(n1)N(C1CCOCC1)[C@H](C)C(=O)N2C [Example 30, (3R)-6-{[2-Methoxy-5-(2-oxa-6-azaspiro[3.3]hept-6-ylsulphonyl)phenyl]amino}-1,3-dimethyl-4-(tetrahydro-2H-pyran-4-yl)-3,4-dihydropyrido[2,3-b]pyrazin-2(1H)-one] | 44
23 | C[C@@H]1C(=O)N(C)c2ccc(Nc3cccc(C(=O)NCCN4CCN(C)CC4)c3)nc2N1Cc1ccccc1 [Example 74, 3-{[(3R)-4-benzyl-1,3-dimethyl-2-oxo-1,2,3,4-tetrahydropyrido[2,3-b]pyrazin-6-yl]amino}-N-[2-(4-methylpiperazin-1-yl)ethyl]benzamide] | 87
24 | COc1ccc(C(=O)NC2CCN(C)CC2)cc1Nc1ccc2c(n1)N(C1CCOCC1)[C@H](C)C(=O)N2C [Example 16, 3-{[(3R)-1,3-Dimethyl-2-oxo-4-(tetrahydro-2H-pyran-4-yl)-1,2,3,4-tetrahydropyrido[2,3-b]pyrazin-6-yl]amino}-4-methoxy-N-(1-methylpiperidin-4-yl)benzamide] | 234
25 | C[C@@H]1C(=O)N(C)c2ccc(Nc3cccc(C(=O)NC4CCN(C)CC4)c3)nc2N1C1CCCC1 [Example 2, 3-{[(3R)-4-Cyclopentyl-1,3-dimethyl-2-oxo-1,2,3,4-tetrahydropyrido[2,3-b]pyrazin-6-yl]amino}-N-(1-methylpiperidin-4-yl)benzamide] | 94
26 | C[C@@H]1C(=O)N(C)c2ccc(Nc3cccc(S(=O)(=O)N4CCOCC4)c3)cc2N1C1CCOCC1 [Example 8, (3R)-1,3-Dimethyl-6-{[3-(morpholin-4-ylsulphonyl)phenyl]amino}-4-(tetrahydro-2H-pyran-4-yl)-3,4-dihydroquinoxalin-2(1H)-one] | 79
27 | CC1C(=O)N(C)c2ccc(Nc3cccc(C(=O)NC4CCN(C)CC4)c3)nc2N1c1ccccc1 (racemic) [Example 104, 3-[(1,3-dimethyl-2-oxo-4-phenyl-1,2,3.4-tetrahydropyrido[2,3-b]pyrazin-6-yl)amino]-A-(1-methylpiperidin-4-yl)benzamide] | 956
28 | C[C@@H]1C(=O)N(C)c2ccc(Nc3cccc(S(=O)(=O)NC4CCN(C)CC4)c3)nc2N1C1CCCCCC1 [Example 48, 3-{[(3R)-4-cycloheptyl-1,3-dimethyl-2-oxo-1,2,3,4-tetrahydropyrido-[2,3-b]pyrazin-6-yl]amino}-N-(1-methylpiperidin-4-yl)benzenesulphonamide] | 75
